The results in this text go back to US10457687B2, “Aminoacid derivatives, a process for their preparation and pharmaceutical compositions containing them” (LES LABORATOIRES SERVIER, priority 2015, dated 2019).

The structures appear in SMILES notation. Where only a bound is given, the exact number is not on record here.

The target of one experiment is Mcl-1 protein (Homo sapiens, UniProt Q07820). The experiment can be described thus: Inhibition of Mcl-1 by the fluorescence polarisation technique (Method 1 or Method 2). The note with it: for IC50: fluorescence polarisation, Fluorescein labelled ligand, Method 1 (not underlined) or Method 2 (underlined), read-out: IC50 (μM) Mcl-1 FP; for percentage fluorescence polarisation inhibition, Mcl-1 FP: partial inhibitors, @ 10 μM test compound. In kind it is binding. A digest of the protocol: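 Binding measured by FP, with Mcl-1 protein and fluorescein-labelled ligand mixed with compounds in an 11-point series at 5% final DMSO. Method 2 used 10 nM each of protein and ligand in phosphate buffer (20 mM Na2HPO4, 1 mM EDTA, 50 mM NaCl, pH 7.4); Method 1 used 5 nM protein, 1 nM ligand in HEPES buffer (10 mM HEPES, 150 mM NaCl, 0.05% Tween 20, pH 7.4).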
Sequence of Mcl-1 protein (Q07820 whole entry): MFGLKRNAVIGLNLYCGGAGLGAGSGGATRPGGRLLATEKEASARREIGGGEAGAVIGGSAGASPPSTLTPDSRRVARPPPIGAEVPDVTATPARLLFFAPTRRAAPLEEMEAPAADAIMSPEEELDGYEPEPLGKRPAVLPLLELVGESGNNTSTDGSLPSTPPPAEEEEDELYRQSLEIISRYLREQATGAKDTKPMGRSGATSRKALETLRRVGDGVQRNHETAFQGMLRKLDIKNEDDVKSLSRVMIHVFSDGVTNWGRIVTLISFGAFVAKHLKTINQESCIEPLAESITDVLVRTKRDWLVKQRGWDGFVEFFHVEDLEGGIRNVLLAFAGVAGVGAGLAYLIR
On the technique in general: Polarisation of emitted light reports the rotation of a fluorescent probe.

Experiment [1] concerns H929 multiple myeloma tumour line. As to the kind of experiment: In vitro cytotoxicity, MTT assay, 48 hours. In kind it is cell-based. The conditions noted are these: H929 cells, 48 hours exposure, cell viability. Here is the method: The cytotoxicity studies were carried out on the H929 multiple myeloma tumour line.
The cells are distributed onto microplates and exposed to the test compounds for 48 hours.

Experiment [2] has as its system cleaved form of PARP in AMO-1 tumour cells. The experiment can be described thus: Quantification of the cleaved form of PARP in vivo (AMO-1 xenograft, MSD ELISA). Details: species or system mice (SCID strain). The note with it: activation factor: cleaved PARP in treated mice / control mice, SCID mice, intraveinous or oral routes. As for the experimental part:
The ability of the compounds of the invention to induce apoptosis, by measuring cleaved PARP levels, is evaluated in a xenograft model of AMO-1 multiple myeloma cells. 1·10^7 AMO-1 cells are grafted sub-cutaneously into immunosuppressed mice (SCID strain). 12 to 14 days after the graft, the animals are treated by intraveinous or oral routes with the various compounds. After treatment, the tumour masses are recovered and lysed, and the cleaved form of PARP is quantified in the tumour lysates.
The quantification is carried out using the “Meso Scale Discovery (MSD) ELISA platform” test, which specifically assays the cleaved form of PARP. It is expressed in the form of an activation factor corresponding to the ratio between the quantity of cleaved PARP in the treated mice divided by the quantity of cleaved PARP in the control mice.
(ELISA stands for enzyme-linked immunosorbent assay.)

By IC50 is commonly meant the concentration that gives 50% inhibition. Take `CCOc1nccc(COc2ccccc2CC(Nc2ncnc3sc(-c4ccc(F)o4)c(-c4ccc(OCCN5CCN(C)CC5)c(Cl)c4C)c23)C(=O)O)n1` [Example 22, N-[(5Sa)-5-{3-chloro-2-methyl-4-[2-(4-methylpiperazin-1-yl)ethoxy]phenyl}-6-(5-fluorofuran-2-yl)thieno[2,3-d]pyrimidin-4-yl]-2-[(2-ethoxypyrimidin-4-yl)methoxy]-D-phenylalanine]: the IC50 on Mcl-1 protein came out at 0.002 µM; in experiment [1] (Homo sapiens, NCI-H929) it was 8.59 nM. In experiment [2], the PARP fold came to 222.2.

In the case of `CC#Cc1sc2ncnc(NC(Cc3ccccc3OCc3ccnc(-c4ccccc4OC)n3)C(=O)OCC)c2c1-c1ccc(OCCN(C)C)c(Cl)c1C` [Example 259, ethyl N-[(5Sa)-5-{3-chloro-4-[2-(dimethylamino)ethoxy]-2-methylphenyl}-6-(prop-1-yn-1-yl)thieno[2,3-d]pyrimidin-4-yl]-2-{[2-(2-methoxyphenyl)pyrimidin-4-yl]methoxy}-D-phenylalaninate], the concentration for half-maximal inhibition (IC50) on Mcl-1 protein is 1.35 µM; in experiment [1] (Homo sapiens, NCI-H929) it was more than 600 nM. Also, in experiment [2], the PARP fold is on record as 134.4.

Turning to `CC#Cc1sc2ncnc(NC(Cc3ccccc3OCc3ccnc(OCC(F)(F)F)n3)C(=O)O)c2c1-c1ccc(OCCN2CCN(C)CC2)c(Cl)c1C` [Example 44, N-[(5Sa)-5-{3-chloro-2-methyl-4-[2-(4-methylpiperazin-1-yl)ethoxy]phenyl}-6-(prop-1-yn-1-yl)thieno[2,3-d]pyrimidin-4-yl]-2-{[2-(2,2,2-trifluoroethoxy)pyrimidin-4-yl]methoxy}-D-phenylalanine], the IC50 on Mcl-1 protein worked out at 0.007 µM; in experiment [1] (Homo sapiens, NCI-H929), 3.44 nM. In addition, the PARP fold in experiment [2] came out at 85.8.

With `COCCOc1ccccc1-c1nccc(COc2ccccc2CC(Nc2ncnc3sc(-c4ccc(F)cc4)c(-c4ccc(OCCN(C)C)c(Cl)c4C)c23)C(=O)O)n1` [Example 51, N-[(5Sa)-5-{3-chloro-4-[2-(dimethylamino)ethoxy]-2-methylphenyl}-6-(4-fluorophenyl)thieno[2,3-d]pyrimidin-4-yl]-2-({2-[2-(2-methoxyethoxy)phenyl]pyrimidin-4-yl}methoxy)-D-phenylalanine], the IC50 on Mcl-1 protein turned out to be 0.005 µM; in experiment [1] (Homo sapiens, NCI-H929), 23.3 nM. In addition, the PARP fold in experiment [2] was 52.2.

Regarding `CC#Cc1sc2ncnc(NC(Cc3ccccc3OCc3ccnc(N4CCOCC4)n3)C(=O)O)c2c1-c1ccc(OCCN2CCN(C)CC2)c(Cl)c1C` [Example 43, N-[(5Sa)-5-{3-chloro-2-methyl-4-[2-(4-methylpiperazin-1-yl)ethoxy]phenyl}-6-(prop-1-yn-1-yl)thieno[2,3-d]pyrimidin-4-yl]-2-{[2-(morpholin-4-yl)pyrimidin-4-yl]methoxy}-D-phenylalanine], the IC50 on Mcl-1 protein stood at 0.006 µM; in experiment [1] (Homo sapiens, NCI-H929), 12.5 nM. In experiment [2], this compound had a PARP fold of 114.6.

For `CC#Cc1sc2ncnc(N[C@H](Cc3ccccc3OCc3ccnc(-c4ccccc4OC)n3)C(=O)O)c2c1-c1ccc(OCCN(C)C)c(Cl)c1C` [Example 49, N-[(5Sa)-5-{3-chloro-4-[2-(dimethylamino)ethoxy]-2-methylphenyl}-6-(prop-1-yn-1-yl)thieno[2,3-d]pyrimidin-4-yl]-2-{[2-(2-methoxyphenyl)pyrimidin-4-yl]methoxy}-D-phenylalanine], the IC50 is 0.003 µM on Mcl-1 protein and 4.12 nM in experiment [1]. Moreover, the PARP fold in experiment [2] was 138.8.

With `CC#Cc1sc2ncnc(NC(Cc3ccccc3OCc3ccnc(-c4ccccc4OC)n3)C(=O)OCC)c2c1-c1ccc(OCCN2CCN(C)CC2)c(Cl)c1C` [Example 258, ethyl N-[(5Sa)-5-{3-chloro-2-methyl-4-[2-(4-methylpiperazin-1-yl)ethoxy]phenyl}-6-(prop-1-yn-1-yl)thieno[2,3-d]pyrimidin-4-yl]-2-{[2-(2-methoxyphenyl)pyrimidin-4-yl]methoxy}-D-phenylalaninate], the IC50 on Mcl-1 protein came to 1.07 µM; in experiment [1] (Homo sapiens, NCI-H929) it was 428 nM. Further, the PARP fold in experiment [2] was 132.3.

For the compound `CCOC(=O)C(Cc1ccccc1OCc1ccnc(-c2ccccc2OC)n1)Nc1ncnc2sc(-c3ccc(F)cc3)c(-c3ccc(OCCN4CCN(C)CC4)c(Cl)c3C)c12` [Example 256, ethyl N-[(5Sa)-5-{3-chloro-2-methyl-4-[2-(4-methylpiperazin-1-yl)ethoxy]phenyl}-6-(4-fluorophenyl)thieno[2,3-d]pyrimidin-4-yl]-2-{[2-(2-methoxyphenyl)pyrimidin-4-yl]methoxy}-D-phenylalaninate], the IC50 at Mcl-1 protein was 1.61 µM; in experiment [1] (Homo sapiens, NCI-H929), more than 600 nM. In experiment [2], this compound yielded a PARP fold of 99.5.

`Cc1c(-c2c(-c3ccsc3)sc3ncnc(NC(Cc4ccccc4F)C(=O)O)c23)ccc(OCCN2CCN(C)CC2)c1Cl` [Example 34, N-[(5Sa)-5-{3-chloro-2-methyl-4-[2-(4-methylpiperazin-1-yl)ethoxy]phenyl}-6-(thiophen-3-yl)thieno[2,3-d]pyrimidin-4-yl]-2-fluoro-D-phenylalanine]: the IC50 was 0.726 µM on Mcl-1 protein and 4270 nM in experiment [1] (Homo sapiens, NCI-H929).

Consider `COC(=O)c1oc(-c2sc3ncnc(NC(Cc4ccccc4OC)C(=O)O)c3c2-c2ccc(OCCN3CCN(C)CC3)c(Cl)c2C)cc1C` [Example 66, N-((5Ra)-5-{3-chloro-2-methyl-4-[2-(4-methylpiperazin-1-yl)ethoxy]phenyl}-6-[5-(methoxycarbonyl)-4-methylfuran-2-yl]thieno[2,3-d]pyrimidin-4-yl)-2-methoxy-D-phenylalanine], for which the “percentage fluorescence polarisation inhibition, Mcl-1 FP” value on Mcl-1 protein came out at 36.9% @ 10 μM. The IC50 in experiment [1] was more than 3750 nM.

Turning to `Cc1c(-c2c(-c3ccc(F)o3)sc3ncnc(NC(Cc4ccccc4O)C(=O)O)c23)ccc(OCCN(C)C)c1Cl` [Example 28, N-[(5Sa)-5-{3-chloro-4-[2-(dimethylamino)ethoxy]-2-methylphenyl}-6-(5-fluorofuran-2-yl)thieno[2,3-d]pyrimidin-4-yl]-2-hydroxy-D-phenylalanine], the IC50 is 0.116 µM on Mcl-1 protein and more than 1880 nM in experiment [1] (Homo sapiens, NCI-H929).

For `Cc1c(-c2c(-c3ccco3)sc3ncnc(NC(Cc4ccccc4OCc4ccccn4)C(=O)O)c23)ccc(OCCN2CCN(C)CC2)c1Cl` [Example 13, N-[(5Ra)-5-{3-chloro-2-methyl-4-[2-(4-methylpiperazin-1-yl)ethoxy]phenyl}-6-(furan-2-yl)thieno[2,3-d]pyrimidin-4-yl]-2-(pyridin-2-ylmethoxy)-D-phenylalanine], the “percentage fluorescence polarisation inhibition, Mcl-1 FP” value on Mcl-1 protein was 58% @ 10 μM. The IC50 in experiment [1] was more than 3750 nM.

Regarding `CC#Cc1sc2ncnc(NC(Cc3ccccc3OCc3ccnn3C(C)(C)C)C(=O)O)c2c1-c1ccc(OCCN2CCN(C)CC2)c(Cl)c1C` [Example 40, 2-[(1-tert-butyl-1H-pyrazol-5-yl)methoxy]-N-[(5Sa)-5-{3-chloro-2-methyl-4-[2-(4-methylpiperazin-1-yl)ethoxy]phenyl}-6-(prop-1-yn-1-yl)thieno[2,3-d]pyrimidin-4-yl]-D-phenylalanine], the IC50 stood at 0.006 µM on Mcl-1 protein and 32.8 nM in experiment [1] (Homo sapiens, NCI-H929). The same compound returned a PARP fold in experiment [2] of 114.3.

Regarding `Cc1c(-c2c(-c3ccco3)sc3ncnc(NC(Cc4ccccc4OCc4ccccn4)C(=O)O)c23)ccc(OCCN2CCN(C)CC2)c1Cl` [Example 12, N-[(5Sa)-5-{3-chloro-2-methyl-4-[2-(4-methylpiperazin-1-yl)ethoxy]phenyl}-6-(furan-2-yl)thieno[2,3-d]pyrimidin-4-yl]-2-(pyridin-2-ylmethoxy)-D-phenylalanine], the IC50 on Mcl-1 protein came out at 0.014 µM; in experiment [1] (Homo sapiens, NCI-H929), 647 nM.

On to `COc1ccccc1C[C@@H](Nc1ncnc2sc(-c3ccc(F)o3)c(-c3ccc(OCCN4CCN(C)CC4)c(Cl)c3C)c12)C(=O)O` [Example 15, N-[(5Ra)-5-{3-chloro-2-methyl-4-[2-(4-methylpiperazin-1-yl)ethoxy]phenyl}-6-(5-fluorofuran-2-yl)thieno[2,3-d]pyrimidin-4-yl]-2-methoxy-D-phenylalanine], for which the “percentage fluorescence polarisation inhibition, Mcl-1 FP” value at Mcl-1 protein came out at 40.05% @ 10 μM. The same compound gave an IC50 in experiment [1] of more than 3750 nM.

With `COc1ccccc1-c1nccc(COc2ccccc2CC(Nc2ncnc3sc(-c4ccc(F)o4)c(-c4ccc(OCCN5CCN(C)CC5)c(Cl)c4C)c23)C(=O)O)n1` [Example 27, N-[(5Sa)-5-{3-chloro-2-methyl-4-[2-(4-methylpiperazin-1-yl)ethoxy]phenyl}-6-(5-fluorofuran-2-yl)thieno[2,3-d]pyrimidin-4-yl]-2-{[2-(2-methoxyphenyl)pyrimidin-4-yl]methoxy}-D-phenylalanine], the IC50 on Mcl-1 protein was 0.011 µM; in experiment [1] (Homo sapiens, NCI-H929) it was 2.09 nM.

With `Cc1c(-c2c(-c3ccc(F)cc3)sc3ncnc(NC(Cc4ccccc4OCc4ccnc(-c5ccccc5F)n4)C(=O)O)c23)ccc(OCCN(C)C)c1Cl` [Example 50, N-[(5Sa)-5-{3-chloro-4-[2-(dimethylamino)ethoxy]-2-methylphenyl}-6-(4-fluorophenyl)thieno[2,3-d]pyrimidin-4-yl]-2-{[2-(2-fluorophenyl)pyrimidin-4-yl]methoxy}-D-phenylalanine], the IC50 on Mcl-1 protein was 0.007 µM; in experiment [1] (Homo sapiens, NCI-H929) it was more than 150 nM.
